Structures are written as SMILES.

A short description of the data set: solvent given as SMILES.
The mark [1] stands for this setting: in O=P(c1ccccc1)(c1ccccc1)c1ccccc1Oc1ccccc1P(=O)(c1ccccc1)c1ccccc1.

Regarding `Cc1cc(O)c(C(=O)/C=C/c2ccc(O)c(O)c2)c(=O)o1`, the emission maximum (in CC#N) is 518 nm and the emission maximum (in ClCCl) came out at 493 nm.

Consider `CC1(C)c2ccccc2N(c2ccc3c(c2)c2ccccc2n2c4ccccc4nc32)c2ccccc21`, for which the emission maximum reads like this: (in Cc1ccccc1) 437 nm; under setting [1], 447.06 nm.

Compound `COC(=O)C(CCCCNC(=O)CCNc1cccc2ccccc12)NC(C)=O` (stereo not given) returned an emission maximum (in CCO) of 417 nm.

With `Cc1ccc(/C2=c3\cc/c(o3)=C(\c3ccc(C)cc3)c3ccc([nH]3)-c3ccc4n3[P-](=O)(=O)[N+]3=C(C=CC3=C4c3ccc[nH]3)c3ccc2[nH]3)cc1`, the emission maximum (in ClC(Cl)Cl) came out at 740 nm.

For the compound `CCC(C)(C)c1ccc2c(c1)C(CC)(CC)c1cc(-c3ccc(-c4ccc5c(c4)C(CC)(CC)c4cc(C(C)(C)CC)ccc4-5)cc3)ccc1-2`, where the note is “in C1CCCCC1”, the emission maximum came out at 381 nm.

As for `O=C1Nc2ccccc2/C1=C/C(=O)c1ccc(Cl)cc1`, the emission maximum (in C1CCCCC1) was 382 nm; the emission maximum (in C1COCCO1) turned out to be 394 nm; the emission maximum (in CC#N) is 398 nm; the emission maximum (in CC(C)(C)O) is 405 nm; the emission maximum (in CC(C)O) is 404 nm; the emission maximum (in CCCCCC) is on record as 382 nm. This compound also gave an emission maximum (in CCCCO) of 405 nm; an emission maximum (in CCOC(C)=O) of 395 nm; an emission maximum (in CN(C)C=O) of 398 nm; an emission maximum (in CO) of 406 nm; an emission maximum (in ClCCl) of 394 nm; an emission maximum (in O) of 410 nm.

Compound `c1cncc(-c2ccc(-c3c4ccccc4c(-c4ccc(-c5cccnc5)cc4)c4ccccc34)cc2)c1` registered an emission maximum (in ClCCl) of 426 nm.

`CCCCCCC1(CCCCCC)c2cc(-c3ccc(-c4ccc(-c5ccc(-c6ccc7c(c6)C(CCCCCC)(CCCCCC)c6cc(-n8c9ccccc9c9ccccc98)ccc6-7)s5)c5nsnc45)s3)ccc2-c2ccc(-n3c4ccccc4c4ccccc43)cc21` gave an emission maximum (in ClCCl) of 611 nm.

`CCC1=C(C)C(=O)n2c1cc1c(C)c(CC)c(C)n1c2=O`: the emission maximum (in CO) turned out to be 540 nm, the emission maximum (in CS(C)=O) stood at 510 nm, the emission maximum (in ClC(Cl)Cl) was 500 nm and the emission maximum (in c1ccccc1) is reported as 500 nm.

Compound `COc1ccc(C(=O)NC(C)(C)C)c2c1ccc1c3ccccc3c3ccccc3c12` gave an emission maximum (in ClCCl) of 407 nm.

Regarding `c1ccc(-n2c(-c3cccc4ccccc34)nc3c4cccc5ccc6cccc(c6c54)c32)cc1`, the emission maximum turned out to be 422.46 nm (in C1CCOC1); 384 nm (in CCCCCC); 436 nm (in CS(C)=O); 420 nm (in Cc1ccccc1); 424.78 nm (in ClCCl).

In the case of `CCCCCCC(CCCCCC)N1C(=O)c2cccc3c(-c4ccc(OC)c5ccccc45)ccc(c23)C1=O`, the emission maximum reads like this: (in CCCCCC) 427.1 nm; (in CCCCCCCCCCCCCC) 431.7 nm; (in CCCCCCCCCCCO) 532.4 nm; (in CCCCO) 576.8 nm; (in CN(C)C=O) 581.8 nm; (in Cc1ccccc1) 478 nm. The emission maximum (in ClC(Cl)Cl) is given as 509.7 nm.

Where the note is “in C1CCOC1”, `c1ccc(-c2cc(-c3ccccc3)cc(-c3ccc4c(c3)C3(c5ccccc5-4)c4ccccc4-c4c3c3c5ccccc5c(-c5cc(-c6ccccc6)cc(-c6ccccc6)c5)cc3c3ccccc43)c2)cc1` (stereo not given) came in with an emission maximum of 440 nm.

In turn, `CC(C)(C)c1ccc(-c2nc3c4ccccc4c4ccccc4c3n2-c2ccc(-c3ccc(N(c4ccccc4)c4ccccc4)cc3)cc2)cc1` registered an emission maximum (in ClCCl) of 426 nm.

Where the note is “in ClCCl”, `F[B-]1(F)Oc2ccc3ccccc3c2-c2c3c(c4c([n+]21)CCc1ccccc1-4)CCc1ccccc1-3` registered an emission maximum of 476 nm.

`COC(C)CC1=N/C(=C\c2cccc(N(C)C)c2)C(=O)N1C` (stereo not given): the emission maximum runs as follows: (in C1CCOC1) 569 nm; (in CC#N) 632 nm; (in CCCCCC) 495 nm.

Turning to `Cn1c(=O)cc(C(=O)c2ccccc2)c2sc(-c3ccc(C(F)(F)F)cc3)cc21`, the emission maximum reads like this: (in CC#N) 517 nm; (in ClCCl) 511 nm.

In the case of `COc1ccc(O[B-]2(Oc3ccc(OC)cc3)n3c(C)cc(C)c3C(c3ccc(I)cc3)=C3C(C)=CC(C)=[N+]32)cc1`, the emission maximum (in ClC(Cl)Cl) was 518.49 nm.

Take `C(=C\c1ccc(-c2cccc3ccccc23)s1)/c1cccs1`: the emission maximum (in ClCCl) is on record as 453 nm.

For the compound `CC1(C)C(/C=C/c2cc3ccc(O)cc3oc2=O)=[N+](CCCS(=O)(=O)[O-])c2ccc3c(S(=O)(=O)O)cc(S(=O)(=O)O)cc3c21`, the emission maximum is, setting by setting: (in CCO) 659 nm; (in CS(C)=O) 625 nm; (in O) 643 nm.

`COCCN1C(=O)/C(=C/c2cccc(N(C)C)c2)N=C1C` returned an emission maximum (in C1CCOC1) of 563 nm, an emission maximum (in CC#N) of 632 nm and an emission maximum (in CCCCCC) of 491 nm.

Compound `Cc1cc(=O)oc2cc(/[NH+]=C/C=C3/C=C(C(=O)O)NC(C(=O)O)C3)ccc12` (stereo not given) had an emission maximum (in O) of 570 nm.

Consider `CCCCN(CCCC)c1ccc2c(c1)C#CC#Cc1cc(N(CCCC)CCCC)ccc1C#Cc1cc(c3cc1C#Cc1ccc(C(F)(F)F)cc1C#CC#Cc1cc(C(F)(F)F)ccc1C#C3)C#C2`, for which the emission maximum stood at 551 nm (in ClCCl) and 499 nm (in c1ccccc1).

In the case of `CCCCCCn1c2ccccc2c2cc(-c3ccc(-c4cc(-c5ccccn5)nc(-c5ccccn5)c4)cc3)ccc21`, the emission maximum (in ClCCl) is given as 447 nm.

As for `CCN(CC)c1cccc2c1ccc1c(=O)oc(-c3ccc(C(F)(F)F)cc3)cc12`, the emission maximum runs as follows: (in CC(C)=O) 604 nm; (in CCCCCC) 469 nm; (in CCCCCCCCO) 561 nm; (in CCCCO) 578 nm; (in CCCO) 587 nm; (in CCO) 599 nm. Further, the emission maximum was 568 nm (in CCOC(C)=O), 613 nm (in CN(C)C=O), 604 nm (in CO) and 542 nm (in ClC(Cl)Cl).

Regarding `Cc1cc(C)c(B(c2ccc(N3c4ccccc4C(C)(C)c4ccccc43)cc2)c2c(C)cc(C)cc2C)c(C)c1`, the emission maximum by setting is: (in C1CCCCC1) 442 nm; (in C1CCOC1) 530 nm; (in CN(C)C=O) 578.72 nm; (in Cc1ccccc1) 484 nm; (in ClCCl) 540.77 nm.

For `COc1cc2c(cc1-c1ccc(C=O)cc1)Cc1c3c(c4c(c1-2)-c1cc(OC)c(-c2ccc(C=O)cc2)cc1C4)C(=O)N(CCC(C)C)C3=O`, the emission maximum (in C1CCOC1) was found to be 462 nm.

In the case of `CCCCN(CCCC)c1ccc(C#Cc2cc(C#Cc3c(F)c(F)c(F)c(F)c3F)c(C#Cc3c(F)c(F)c(F)c(F)c3F)cc2C#Cc2ccc(N(CCCC)CCCC)cc2)cc1`, the emission maximum worked out at 556 nm (in ClCCl) and 505 nm (in c1ccccc1).

For `COc1ccc(/C=C/C(=O)c2c(O)cc(C)oc2=O)cc1`, the emission maximum (in CC#N) stood at 488 nm and the emission maximum (in ClCCl) turned out to be 487 nm.

Consider `CCCCOc1c(-c2ccc(C=O)cc2)cc2cc(-c3ccc(C=O)cc3)c(OCCCC)c3c4c(OCCCC)c(-c5ccc(C=O)cc5)cc5cc(-c6ccc(C=O)cc6)c(OCCCC)c(c1c23)c54`, for which, under “in ClCCl”, the emission maximum was determined as 500 nm.

Compound `O=C(Cc1ccccc1)OCc1ccc2c3cccc4cccc(c5cccc1c52)c43` returned an emission maximum (in CCO) of 445 nm.

`CC1(C)c2ccccc2N(c2cc[n+]3c(c2)-c2ccccc2O[B-]3(F)F)c2ccccc21`: the emission maximum amounted to 540 nm (in Cc1ccccc1) and 542 nm under setting [1].

`COc1ccc([C@@H]2C[C@](O)(c3ccccn3)C[C@](O)(c3ccccn3)[C@H]2C(=O)c2ccc(N(c3ccccc3)c3ccccc3)cc2)cc1`: the emission maximum came to 495 nm (in C1CCOC1); 522 nm (in CC#N); 504 nm (in CCO); 495 nm (in CCOC(C)=O); 521 nm (in CN(C)C=O); 513 nm (in ClCCl). For the setting “in c1ccccc1”, this compound displayed an emission maximum of 468 nm.

In turn, `NNC(=O)c1ccc(/C=C/c2ccc(C(=O)NN)cc2)cc1` showed an emission maximum (in CN(C)C=O) of 395 nm.

For the compound `CCOC(=O)C1=C(N)n2c(=O)c3ccccc3c(=O)n2C1c1ccc([N+](=O)[O-])cc1` (stereo not given), the emission maximum (in CS(C)=O) stood at 510 nm.

Take `CCCCCCc1ccc(-n2c3[n+](c4c5ccccc5c5ccccc5c42)[B-](C)(C)c2cc(-n4c5ccccc5c5ccccc54)ccc2-3)cc1`: the emission maximum reads like this: (in C1CCOC1) 409 nm; (in CC#N) 409 nm; (in Cc1ccccc1) 410 nm; (in ClCCl) 408 nm.

`CCOC(=O)COc1ccc(/C=C/C2=C3c4ccccc4C(c4[nH]c(C)cc4C)=[N+]3[B-](F)(F)n3c(C)cc(C)c32)cc1`: the emission maximum is, setting by setting: (in C1CCOC1) 684 nm; (in CC#N) 681 nm; (in CCCCCC) 679 nm; (in CO) 680 nm; (in Cc1ccccc1) 690 nm; (in ClCCl) 687 nm.

`COC(=O)/C=C/C1=CC2=C(c3c(C)cc(C)cc3C)c3cccn3[B-](F)(F)[N+]2=C1` returned an emission maximum (in ClCCl) of 570 nm.

Compound `CC(C)[Si](C#Cc1c2cc3ccccc3cc2c(C#Cc2ccc(C(F)(F)F)cc2)c2cc3ccccc3cc12)(C(C)C)C(C)C` came in with an emission maximum (in ClCCl) of 667 nm.

In the case of `CCCCCOc1cc2oc(=O)c3c4ccc(N(c5ccc(C)cc5)c5ccc(C)cc5)cc4c4ccc5cccc6c(c1)c2c3c4c56`, for the setting “in C1CCOC1”, the emission maximum is given as 605 nm.

For `CC1(C)Nc2cc3nc4cc(Br)c(Br)cc4nc3cc2N1`, under “in CCO”, the emission maximum was found to be 508 nm.

Values taken from the Deep4Chem optical property database.
